Test results taken from PMC9698663, “Testing Serum Albumins and Cyclodextrins as Potential Binders of the Mycotoxin Metabolites Alternariol-3-Sulfate, Alternariol-9-Monomethylether and Alternariol-9-Monomethylether-3-Sulfate” (International Journal of Molecular Sciences, 2022).
Structures can show the parent of a compound that is named as a salt. Where two headings read alike, the source gives them in different places.

How the values were obtained:
[1] = target: T1, human serum albumin (HSA) (Homo sapiens, UniProt P02768); assay: Ultrafiltration studies with Site I, Site II and Heme site markers; format: binding; design: purchased Merck (Darmstadt, Germany); conditions: mycotoxin 20 μM, PBS pH 7.4; for effect on filtered fraction of S-camptothecin (Heme site marker): camptothecin 1.0 μM + HSA 2.0 μM; for effect on filtered fraction of naproxen (Site II marker): naproxen 1.0 μM + HSA 1.5 μM; for effect on filtered fraction of warfarin (Site I marker): warfarin 1.0 μM + HSA 5.0 μM
T1 sequence (P02768 25-609): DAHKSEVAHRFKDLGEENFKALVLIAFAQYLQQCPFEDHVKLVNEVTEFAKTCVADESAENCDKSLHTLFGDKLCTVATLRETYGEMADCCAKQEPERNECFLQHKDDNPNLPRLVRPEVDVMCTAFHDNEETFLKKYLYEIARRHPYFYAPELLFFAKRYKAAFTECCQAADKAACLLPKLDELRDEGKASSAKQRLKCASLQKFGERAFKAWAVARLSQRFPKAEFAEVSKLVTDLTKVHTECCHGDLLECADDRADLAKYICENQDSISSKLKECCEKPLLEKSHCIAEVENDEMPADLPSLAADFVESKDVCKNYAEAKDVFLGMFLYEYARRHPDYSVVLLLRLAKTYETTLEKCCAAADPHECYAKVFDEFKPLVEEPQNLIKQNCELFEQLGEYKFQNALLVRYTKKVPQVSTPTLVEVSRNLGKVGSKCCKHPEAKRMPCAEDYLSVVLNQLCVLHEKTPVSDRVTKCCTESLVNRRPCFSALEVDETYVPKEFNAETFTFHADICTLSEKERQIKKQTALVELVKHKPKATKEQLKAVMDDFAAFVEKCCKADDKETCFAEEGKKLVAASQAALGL
Procedure: To test the binding sites of mycotoxin metabolites on HSA, ultrafiltration experiments were performed, where warfarin, naproxen, and S-camptothecin were used as Site I, Site II, and Heme site markers, respectively. Ultrafiltration studies were performed as described earlier, with minor modifications. Briefly, warfarin and naproxen samples were filtered using Amicon Ultra centrifugal filters (Merck, Darmstadt, Germany) with a 30 kDa molecular weight cut-off (MWCO) value. Camptothecin barely passed through these filters; therefore, the displacement of this Heme site marker was examined employing Pall Microsep Advance centrifugal devices (MWCO: 10 kDa; VWR, Budapest, Hungary). Each filter unit was washed once with water and once with PBS (pH 7.4). Thereafter, samples were centrifuged with a fixed angle rotor for 10 min at 7500 g and 25 °C. Before ultrafiltration, samples contained warfarin (1.0 μM) + HSA (5.0 μM), naproxen (1.0 μM) + HSA (1.5 μM), or camptothecin (1.0 μM) + HSA (2.0 μM) in the absence and presence of AS, AME, or AMS (each 20 μM) in PBS (pH 7.4). The filters used retain HSA (66.5 kDa) and albumin-bound ligands. Therefore, the elevated concentration of the site marker in the filtrate indicates its displacement from the protein [30, 36]. The concentrations of warfarin and camptothecin in the filtrate were analyzed by HPLC-FLD, while naproxen was quantified by HPLC-UV as has been previously reported.

[2] = target: T1, human serum albumin (HSA); assay: Fluorescence quenching of human serum albumin by mycotoxins; format: binding; design: purchased Merck (Darmstadt, Germany); conditions: for HSA logKSV (±SEM): Stern–Volmer quenching constant KSV in L/mol, linear fitting
Procedure: (§1) Fluorescence emission spectra were collected employing a Hitachi F-4500 fluorescence spectrophotometer (Tokyo, Japan) at 25 °C and in the presence of air. UV–Vis absorption spectra of AS, AME, and AMS were recorded using a Jasco V730 UV–Vis spectrophotometer (Tokyo, Japan). In fluorescence spectroscopic studies, the inner-filter effects of mycotoxins were corrected as has been previously reported.
(§2) Then, fluorescence quenching studies were also performed, where increasing amounts of AS, AME, or AMS (final concentrations: 0–5 μM) were added to 2 μM concentrations of albumins (HSA, BSA, PSA, or RSA), after which emission spectra were recorded (λex = 295 nm). After the correction of the inner-filter effects, mycotoxin-induced changes were evaluated at 340 nm.
(§3) Quenching experiments were evaluated by employing the graphical application of the Stern–Volmer equation (linear fitting) and using HyperQuad2006 software (non-linear fitting). Stern–Volmer quenching constants (KSV; unit: L/mol) were determined based on the Stern–Volmer equation [30]:(1) I0/I=1+KSV×Q where I0 and I are the fluorescence emission intensities of albumin in the absence and presence of the quencher (mycotoxins), respectively; [Q] is the molar (mol/L) concentration of mycotoxins. Binding constants (K; unit: L/mol) were calculated using HyperQuad2006 software, as has been previously reported.

rat serum albumin (RSA) [3] = target: T2, rat serum albumin (RSA) (Rattus norvegicus, UniProt P02770); assay: Fluorescence quenching of rat serum albumin by mycotoxins; format: binding; conditions: for RSA logKSV (±SEM): Stern–Volmer quenching constant KSV in L/mol, linear fitting
T2 construct: purchased Merck (Darmstadt, Germany)
T2 sequence (P02770 25-608): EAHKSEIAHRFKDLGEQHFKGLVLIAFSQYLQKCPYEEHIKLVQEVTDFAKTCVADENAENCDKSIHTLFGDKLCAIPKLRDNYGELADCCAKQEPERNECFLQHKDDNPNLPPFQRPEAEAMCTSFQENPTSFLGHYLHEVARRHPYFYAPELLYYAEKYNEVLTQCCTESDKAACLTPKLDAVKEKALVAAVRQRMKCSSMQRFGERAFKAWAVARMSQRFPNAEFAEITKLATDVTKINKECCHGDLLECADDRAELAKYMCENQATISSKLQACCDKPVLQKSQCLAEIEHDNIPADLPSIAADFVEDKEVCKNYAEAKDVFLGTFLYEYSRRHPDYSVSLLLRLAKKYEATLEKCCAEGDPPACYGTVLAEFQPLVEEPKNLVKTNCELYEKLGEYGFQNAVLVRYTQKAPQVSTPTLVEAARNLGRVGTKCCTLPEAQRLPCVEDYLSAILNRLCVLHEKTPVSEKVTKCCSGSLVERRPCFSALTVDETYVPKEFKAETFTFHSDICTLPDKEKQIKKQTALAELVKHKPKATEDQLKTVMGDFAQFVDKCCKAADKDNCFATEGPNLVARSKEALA
Procedure: as §1, §2, §3

[4] = target: T3, bovine serum albumin (BSA) (Bos taurus, UniProt P02769); assay: Fluorescence quenching of bovine serum albumin by mycotoxins; format: binding; conditions: for BSA logKSV (±SEM): Stern–Volmer quenching constant KSV in L/mol, linear fitting; for effect of environmental pH on binding to BSA: pH 5.0, 6.5, 7.4, 8.5, AME: pH 8.5 vs acidic and physiological conditions
T3 construct: purchased Merck (Darmstadt, Germany)
T3 sequence (P02769 25-607): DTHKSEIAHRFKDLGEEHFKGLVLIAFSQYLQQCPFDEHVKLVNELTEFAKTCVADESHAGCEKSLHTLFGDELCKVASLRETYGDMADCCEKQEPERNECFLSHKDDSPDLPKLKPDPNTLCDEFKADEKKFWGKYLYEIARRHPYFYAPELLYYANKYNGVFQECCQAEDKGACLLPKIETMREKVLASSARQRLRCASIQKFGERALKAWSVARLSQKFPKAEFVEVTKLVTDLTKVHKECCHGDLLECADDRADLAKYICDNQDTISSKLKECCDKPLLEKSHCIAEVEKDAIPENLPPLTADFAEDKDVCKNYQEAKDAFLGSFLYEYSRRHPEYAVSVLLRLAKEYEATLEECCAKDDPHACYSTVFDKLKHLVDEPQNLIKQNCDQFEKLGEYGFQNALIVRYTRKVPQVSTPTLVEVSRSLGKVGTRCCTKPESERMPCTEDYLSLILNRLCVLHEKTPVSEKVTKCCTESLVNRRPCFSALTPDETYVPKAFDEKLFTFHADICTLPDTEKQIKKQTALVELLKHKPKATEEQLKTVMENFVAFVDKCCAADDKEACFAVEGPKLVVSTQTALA
Procedure: as §1, §2, §3

[5] = target: T1, human serum albumin (HSA); assay: Ultracentrifugation studies (unbound fraction in presence of HSA); format: binding; design: purchased Merck (Darmstadt, Germany)
Procedure: To confirm the results of the quenching studies, the unbound fractions of AS, AME, and AMS were quantified in the presence of HSA. Applying the optimal conditions of ultracentrifugation, we can sediment albumin and albumin-bound molecules without the disruption of ligand–HSA interactions, then the free unbound fraction of the ligand molecule can be quantified from the protein-free supernatant. Samples contained AS, AME, or […] (each 10 μM) with HSA (20, 60, and 180 μM) in PBS (pH 7.4). These samples (900 μL) were centrifuged for 16 h at 170,000 g and 20 °C in 11 × 34 mm PC tubes (Beckman Coulter, Brea, CA, US), employing a Beckman Coulter Optima MAX-XP tabletop ultracentrifuge (with MLA-130 fixed-angle rotor). Then the concentrations of AS, AME, and AMS were directly analyzed from the supernatants with HPLC-FLD (see details in Section 3.7).
Assuming the 1:1 stoichiometry of complex formation, the binding constants (K) were calculated based on the following equation [36]:(3) K=MA/M×A where [M], [A], and [MA] are the molar concentrations (mol/L) of the free unbound mycotoxin, the free unbound albumin, and the mycotoxin–albumin complex, respectively.

[6] = target: T4, porcine serum albumin (PSA) (Sus scrofa, UniProt P08835); assay: Fluorescence quenching of porcine serum albumin by mycotoxins; format: binding; conditions: for PSA logKSV (±SEM): Stern–Volmer quenching constant KSV in L/mol, linear fitting
T4 construct: purchased Merck (Darmstadt, Germany)
T4 sequence (P08835 25-607): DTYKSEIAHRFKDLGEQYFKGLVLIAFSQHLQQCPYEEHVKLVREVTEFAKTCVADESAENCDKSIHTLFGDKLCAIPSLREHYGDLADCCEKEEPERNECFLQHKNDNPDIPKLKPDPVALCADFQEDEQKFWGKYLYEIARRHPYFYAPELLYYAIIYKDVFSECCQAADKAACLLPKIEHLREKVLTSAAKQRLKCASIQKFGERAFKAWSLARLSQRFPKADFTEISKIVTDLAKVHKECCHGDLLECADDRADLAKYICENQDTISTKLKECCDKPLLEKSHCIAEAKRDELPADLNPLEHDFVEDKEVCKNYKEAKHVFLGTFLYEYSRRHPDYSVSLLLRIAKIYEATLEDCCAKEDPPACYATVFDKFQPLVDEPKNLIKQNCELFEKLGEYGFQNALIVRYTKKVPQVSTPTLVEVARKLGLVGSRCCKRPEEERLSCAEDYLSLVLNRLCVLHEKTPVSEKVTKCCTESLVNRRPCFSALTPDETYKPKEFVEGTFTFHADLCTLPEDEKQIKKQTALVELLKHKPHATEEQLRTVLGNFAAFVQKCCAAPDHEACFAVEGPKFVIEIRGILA
Procedure: as §1, §2, §3

[7] = Fluorescence spectroscopic study of mycotoxin–SGD complexes; format: binding; conditions: for SGD logK (±SEM) BH-Plot / SGD logK (±SEM) Hyperquad: binding constant K in L/mol; for SGD logK (±SEM) BH-Plot: Benesi–Hildebrand plot; for SGD logK (±SEM) BH-Plot / SGD logK (±SEM) Hyperquad / logK with SGD (approximate): sodium acetate buffer pH 5.0; for logK of mycotoxin–SGD complexes at pH 10.0: sodium borate buffer pH 10.0
Procedure: as §1
(§4) To examine the interaction of mycotoxins with the two CDs selected (SBECD and SGD), increasing amounts of the CDs (final concentrations: 0–10 mM) were added to mycotoxins (each 1 μM), then fluorescence emission spectra were recorded (λex = 335 nm for AS/AMS and 350 nm for AME; λem = 455 nm for AS, 485 nm for AME, and 460 nm for AMS). Binding constants (K, unit: L/mol) of mycotoxin–CD complexes were calculated employing the graphical application of the Benesi–Hildebrand equation (linear fitting) and using Hyperquad software (non-linear fitting). The Benesi–Hildebrand equation [25, 43] has been described as:(2) F0/F−F0=1/A+1/A×K×CD^n where, F0 and F are the fluorescence emission intensities of the mycotoxin in the absence and presence of CDs, respectively. [CD] is the molar concentration (mol/L) of the CD, while A is a constant, and n is the number of binding sites. Hyperquad evaluations were performed as has been previously reported.

[8] = Fluorescence spectroscopic study of mycotoxin–SBECD complexes; format: binding; conditions: for SBECD logK (±SEM) BH-Plot / SBECD logK (±SEM) Hyperquad: binding constant K in L/mol; for SBECD logK (±SEM) BH-Plot: Benesi–Hildebrand plot; for SBECD logK (±SEM) BH-Plot / SBECD logK (±SEM) Hyperquad / logK with SBECD (approximate): sodium acetate buffer pH 5.0
Procedure: as §1, §4

[9] = target: T1, human serum albumin (HSA); conditions: cited from earlier work
[10] = target: T1, human serum albumin (HSA); design: purchased Merck (Darmstadt, Germany); method as in PMID 31083629; conditions: previous study; cited from earlier work
rat serum albumin (RSA) [11] = target: T2, rat serum albumin (RSA); design: method as in PMID 31083629; conditions: previous study; cited from earlier work
[12] = binding constant K in L/mol, fluorescence quenching, Hyperquad non-linear fitting, PBS pH 7.4, read-out: HSA logK (±SEM) (converted)
[13] = binding constant K in L/mol, fluorescence quenching, Hyperquad non-linear fitting, read-out: RSA logK (±SEM) (converted)
[14] = binding constant K in L/mol, fluorescence quenching, Hyperquad non-linear fitting, read-out: BSA logK (±SEM) (converted)
[15] = mycotoxin 10 μM, HSA 20, 60, 180 μM, PBS pH 7.4, Equation (3), 1:1 stoichiometry, read-out: logK of mycotoxin–HSA complexes (ultracentrifugation) (converted)
[16] = binding constant K in L/mol, fluorescence quenching, Hyperquad non-linear fitting, read-out: PSA logK (±SEM) (converted)

| Compound | effect on filtered fraction of S-camptothecin (Heme site marker) [1] | effect on filtered fraction of naproxen (Site II marker) [1] | effect on filtered fraction of warfarin (Site I marker) [1] | HSA logKSV (±SEM) ([2]; PBS pH 7.4) | RSA logKSV (±SEM) (rat serum albumin (RSA) [3]) | BSA logKSV (±SEM) [4] | effect of environmental pH on binding to BSA [4] | PSA logKSV (±SEM) [6] | SGD logK (±SEM) BH-Plot [7] | SGD logK (±SEM) Hyperquad [7] | logK of mycotoxin–SGD complexes at pH 10.0 [7] | SBECD logK (±SEM) BH-Plot [8] | SBECD logK (±SEM) Hyperquad [8] | Kd [2, 12] [nM] | Kd (rat serum albumin (RSA) [3]; [13]) [nM] | Kd [4, 14] [nM] | Kd [5, 15] [nM] | Kd [6, 16] [nM] | logK with SGD (approximate) [7] | logK with SBECD (approximate) [8] | also measured |
| --- | --- | --- | --- | --- | --- | --- | --- | --- | --- | --- | --- | --- | --- | --- | --- | --- | --- | --- | --- | --- | --- |
| COc1cc(O)c2c(=O)oc3cc(O)cc(C)c3c2c1 [AME, alternariol-9-monomethylether] | no or only slight effects | no or only slight effects | statistically significant (p < 0.05) impact | 4.86 ± 0.05 | 5.15 ± 0.06 | 4.93 ± 0.05 | approximately ten-fold higher affinity | 4.73 ± 0.06 | 3.95 ± 0.01 | 4.06 ± 0.01 | 4.25 ± 0.06 | 3.46 ± 0.01 | 3.56 ± 0.01 | – | – | – | – | – | – | – | Kd [2]: 11500 nM; Kd (rat serum albumin (RSA) [3]): 5130 nM; Kd [4]: 9120 nM; Kd [5]: 4570 nM; Kd [6]: 14800 nM; stability of AME–SGD complex compared to CD complexes of the sulfate metabolites ([7]; pH 5.0): ten-fold; stability of AME–SBECD complex compared to CD complexes of the sulfate metabolites ([8]; pH 5.0): three-fold |
| COc1cc(O)c2c(=O)oc3cc(OS(=O)(=O)O)cc(C)c3c2c1 [AMS, alternariol-9-monomethylether-3-sulfate ammonium salt] | large | moderate | did not affect | 5.42 ± 0.06 | 5.92 ± 0.03 | 5.81 ± 0.01 | only minor changes | 5.60 ± 0.02 | 2.95 ± 0.05 | 3.21 ± 0.04 | 3.39 ± 0.10 | 2.96 ± 0.01 | 3.08 ± 0.01 | 2630 | 741 | 933 | 3240 | 1660 | ≈ 3 | ≈ 3 | – |
| Cc1cc(O)cc2oc(=O)c3c(O)cc(O)cc3c12 [AOH, Alternariol] | – | – | – | – | – | – | – | – | – | – | – | – | – | – | – | – | – | – | – | – | logK of AOH–HSA complex [9]: 5.6; displacement of naproxen (Site II marker) from HSA [10]: slightly displaced; displacement of warfarin (Site I marker) from HSA [10]: strongly displaced; effect on filtered fraction of camptothecin (Heme site marker) [10]: did not affect; affinity for rat albumin compared to human or porcine albumins (rat serum albumin (RSA) [11]): almost eight-fold higher affinity |
| Cc1cc(OS(=O)(=O)O)cc2oc(=O)c3c(O)cc(O)cc3c12 [AS, Alternariol-3-sulfate ammonium salt] | marked increases | lower but significant (p < 0.01) effect | marked increases | 5.44 ± 0.07 | 5.85 ± 0.03 | 5.60 ± 0.01 | only minor changes | 5.57 ± 0.02 | 2.83 ± 0.01 | 2.99 ± 0.03 | 3.18 ± 0.58 | 3.02 ± 0.01 | 3.02 ± 0.03 | 2450 | 832 | 1620 | 3160 | 1660 | ≈ 3 | ≈ 3 | – |
